In test [1] the target is T1, GPX4 (purified recombinant Sec-containing human GPX4) (Homo sapiens, UniProt P36969).
T1 sequence (P36969 28-197): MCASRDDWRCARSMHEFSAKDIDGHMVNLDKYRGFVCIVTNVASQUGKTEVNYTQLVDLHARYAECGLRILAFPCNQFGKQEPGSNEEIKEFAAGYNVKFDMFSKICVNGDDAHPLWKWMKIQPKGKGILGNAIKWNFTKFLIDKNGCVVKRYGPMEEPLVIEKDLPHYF
The test is described as follows: GR-coupled NADPH fluorescence assay. It counts as biochemical.

Test [2] addresses T2, GPX1 (Homo sapiens, UniProt P07203).
T2 sequence (P07203 1-203): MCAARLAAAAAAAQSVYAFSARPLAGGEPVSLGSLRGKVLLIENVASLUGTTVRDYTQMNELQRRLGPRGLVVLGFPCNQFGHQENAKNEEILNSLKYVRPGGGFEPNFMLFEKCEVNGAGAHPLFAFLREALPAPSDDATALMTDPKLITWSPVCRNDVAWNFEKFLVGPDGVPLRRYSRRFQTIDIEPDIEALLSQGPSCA
As to the kind of experiment: GR-coupled NADPH fluorescence assay. The test is classed as biochemical.

1 compound from article doi:10.1101/2025.11.13.687868v1 (biorxiv, 2025) can be followed below.

Structures are written as SMILES.

On to `O=C(O)CC(S)C(=O)O` (centres unmarked) [thiomalic acid], for which the results for the IC50 in test [1] and in test [2] were 54.8 µM and 6.7 µM, respectively.
